The record followed here is US10179767B2 (GENENTECH, INC., priority 2015, dated 2019).

SMILES strings stand for the structures.

T1 sequence (Q15858 whole entry): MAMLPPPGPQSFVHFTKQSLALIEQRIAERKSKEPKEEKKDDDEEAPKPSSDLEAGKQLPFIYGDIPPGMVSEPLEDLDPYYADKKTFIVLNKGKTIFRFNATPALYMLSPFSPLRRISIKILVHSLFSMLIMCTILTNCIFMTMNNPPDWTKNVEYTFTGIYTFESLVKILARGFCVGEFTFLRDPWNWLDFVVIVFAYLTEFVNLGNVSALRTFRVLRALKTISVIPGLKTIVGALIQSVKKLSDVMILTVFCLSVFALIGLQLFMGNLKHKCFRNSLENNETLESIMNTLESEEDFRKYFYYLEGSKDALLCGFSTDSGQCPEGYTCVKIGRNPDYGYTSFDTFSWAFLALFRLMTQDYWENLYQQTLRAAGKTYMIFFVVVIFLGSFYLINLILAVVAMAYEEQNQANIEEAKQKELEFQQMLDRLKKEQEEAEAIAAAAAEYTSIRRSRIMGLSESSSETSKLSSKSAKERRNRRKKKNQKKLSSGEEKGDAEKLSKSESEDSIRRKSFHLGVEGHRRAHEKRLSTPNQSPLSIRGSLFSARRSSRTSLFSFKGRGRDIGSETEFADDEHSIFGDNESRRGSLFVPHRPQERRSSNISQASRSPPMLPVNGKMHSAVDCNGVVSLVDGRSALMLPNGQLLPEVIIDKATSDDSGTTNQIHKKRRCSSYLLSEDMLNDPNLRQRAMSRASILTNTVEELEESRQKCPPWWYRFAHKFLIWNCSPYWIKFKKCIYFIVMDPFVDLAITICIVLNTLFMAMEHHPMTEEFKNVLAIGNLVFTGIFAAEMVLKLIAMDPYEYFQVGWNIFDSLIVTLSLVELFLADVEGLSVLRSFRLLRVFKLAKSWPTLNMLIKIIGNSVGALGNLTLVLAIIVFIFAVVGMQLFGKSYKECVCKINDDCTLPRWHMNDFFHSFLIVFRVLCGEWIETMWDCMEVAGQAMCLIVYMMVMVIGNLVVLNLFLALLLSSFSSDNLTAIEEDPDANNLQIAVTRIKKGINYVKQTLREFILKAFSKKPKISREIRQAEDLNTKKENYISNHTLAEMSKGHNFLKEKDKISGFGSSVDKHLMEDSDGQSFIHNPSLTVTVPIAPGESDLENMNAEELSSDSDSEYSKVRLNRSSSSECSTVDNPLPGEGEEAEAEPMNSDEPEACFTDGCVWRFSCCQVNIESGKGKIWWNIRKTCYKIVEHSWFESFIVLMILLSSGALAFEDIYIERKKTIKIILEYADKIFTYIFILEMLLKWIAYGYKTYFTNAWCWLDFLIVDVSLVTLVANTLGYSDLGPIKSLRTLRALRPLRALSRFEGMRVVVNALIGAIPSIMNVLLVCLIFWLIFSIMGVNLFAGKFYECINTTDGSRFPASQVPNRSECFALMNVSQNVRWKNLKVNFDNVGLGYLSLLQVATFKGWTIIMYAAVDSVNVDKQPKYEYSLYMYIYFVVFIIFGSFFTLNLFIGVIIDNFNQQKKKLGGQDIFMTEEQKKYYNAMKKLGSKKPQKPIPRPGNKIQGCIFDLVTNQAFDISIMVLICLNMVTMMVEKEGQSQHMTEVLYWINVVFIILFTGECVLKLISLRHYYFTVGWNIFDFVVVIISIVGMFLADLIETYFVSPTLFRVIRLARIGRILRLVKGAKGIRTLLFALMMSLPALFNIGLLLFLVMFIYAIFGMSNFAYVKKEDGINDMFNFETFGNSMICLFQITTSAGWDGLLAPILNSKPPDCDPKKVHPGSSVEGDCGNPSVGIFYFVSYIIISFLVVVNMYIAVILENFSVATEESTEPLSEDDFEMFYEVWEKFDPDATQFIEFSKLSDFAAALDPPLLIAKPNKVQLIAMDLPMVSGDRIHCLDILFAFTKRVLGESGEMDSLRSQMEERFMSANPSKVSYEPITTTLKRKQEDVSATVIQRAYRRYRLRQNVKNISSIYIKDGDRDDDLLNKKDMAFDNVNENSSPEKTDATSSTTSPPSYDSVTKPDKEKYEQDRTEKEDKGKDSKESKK
T1 sequence (Q07699 19-218 partner): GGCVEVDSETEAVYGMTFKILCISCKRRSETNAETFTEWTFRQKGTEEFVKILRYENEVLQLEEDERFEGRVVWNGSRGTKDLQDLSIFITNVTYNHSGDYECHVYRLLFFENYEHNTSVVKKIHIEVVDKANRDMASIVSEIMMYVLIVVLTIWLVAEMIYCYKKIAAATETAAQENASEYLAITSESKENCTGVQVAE

The assay concerns the target T1, hNav1.7 (Homo sapiens, UniProt Q15858).
T1 construct: expressed in transfected cells
Put plainly: Tritiated sulfonamide binding to membranes from cells expressing hNav1.7 and the β1 subunit (Nav 1.7 ligand binding assay, competitive). Particulars: competition with 100 pM [3H]compound, room temperature, 18 h. The protocol:
Tritiated Sulfonamide Binding to Membranes Isolated from Cells that Heterologously Express hNav1.7 and the β1 Subunit
Preparation of membranes containing recombinantly expressed sodium channels: Frozen recombinant cell pellets were thawed on ice and diluted to 4 times the cell pellet weight with ice cold 50 mM Tris HCl, pH 7.4 buffer. The cell suspensions were homogenized on ice using a motorized glass dounce homogeniser. Homogenates were further diluted 8.4 times with ice cold 50 mM Tris HCl, pH 7.4 buffer and then centrifuged at 200×g at 4° C. for 15 min. The supernatants were collected and centrifuged at 10000×g at 4° C. for 50 min. The pellets were then re-suspended in 100 mM NaCl, 20 mM Tris HCl, pH 7.4 buffer containing 1% v/v protease inhibitors (Calbiochem) and re-homogenized on ice. The homogenized membranes were then processed through a syringe equipped with a 26 gauge needle. Protein concentrations were determined by Bradford Assay and the membranes were stored at −80° C.
Radioligand Binding Studies:
Saturation experiments. A competitive NaV1.7 inhibitor having a methyl group was tritiated. Three tritiums were incorporated in place of methyl hydrogens to generate [^3H]compound. Binding of this radioligand was preformed in 5 mL borosilicate glass test tubes at room temperature. Binding was initiated by adding membranes to increasing concentrations of [^3H]compound in 100 mM NaCl, 20 mM Tris HCl, pH 7.4 buffer containing 0.01% w/v bovine serum albumin (BSA) for 18 h. Non-specific binding was determined in the presence of 1 μM unlabelled compound. After 18 h, the reactants were filtered through GF/C glass fiber filters presoaked in 0.5% w/v polyethylene imine Filters were washed with 15 mL ice cold 100 mM NaCl, 20 mM Tris HCl, pH7.4 buffer containing 0.25% BSA to separate bound from free ligand. [^3H]compound bound to filters was quantified by liquid scintillation counting.
Competitive Binding Experiments:
Binding reactions were preformed in 96-well polypropylene plates at room temperature for 18 h. In 360 μL, membranes were incubated with 100 pM [^3H]compound and increasing concentrations of Test Compound. Non-specific binding was defined in the presence of 1 μM unlabelled compound. Reactions were transferred and filtered through 96-well glass fiber/C filter plates presoaked with 0.5% polyethylene imine. The filtered reactions were washed 5 times with 200 μL ice cold buffer containing 0.25% BSA. Bound radioactivity was determined by liquid scintillation counting. Data Analysis: For saturation experiments, non-specific binding was subtracted from total binding to provide specific binding and these values were recalculated in terms of pmol ligand bound per mg protein. Saturation curves were constructed and dissociation constants were calculated using the single site ligand binding model: Beq=(Bmax*X)/(X+Kd), where Beq is the amount of ligand bound at equilibrium, Bmax is the maximum receptor density, Kd is the dissociation constant for the ligand, and X is the free ligand concentration. For competition studies percent inhibition was determined and IC50 values were calculated using a 4 parameter logistic model (% inhibition=(A+((B−A)/(1+((x/C)⨣D)))) using XLfit, where A and B are the maximal and minimum inhibition respectively, C is the IC50 concentration and D is the (Hill) slope.
What is called IC50 is the concentration that gives 50% inhibition. A low value points to higher potency. As to `C[C@@H]1[C@H](Oc2cc(F)c(C(=O)NS(C)(=O)=O)cc2C2CC2)CCCN1Cc1cc(Cl)cc(Cl)c1` [Example 52, 5-cyclopropyl-4-(((2R,3R)-1-(3,5-dichlorobenzyl)-2-methylpiperidin-3-yl)oxy)-2-fluoro-N-(methylsulfonyl)benzamide], the IC50 turned out to be 2.4 nM. The same measure for `COC1(COc2cc(F)c(C(=O)NS(C)(=O)=O)cc2C2CC2)CCN([C@@H](C)c2cc(Cl)cc(Cl)c2)CC1` (single isomer, unassigned) [Example 5]: 9.2 nM. The same measure for `CC(c1cc(Cl)cc(Cl)c1)N1CCC2(CC1)CC(Oc1cc(F)c(C(=O)NS(C)(=O)=O)cc1C1CC1)C2` (stereo not shown) [Example 48, 5-cyclopropyl-4-((7-(1-(3,5-dichlorophenyl)ethyl)-7-azaspiro[3.5]nonan-2-yl)oxy)-2-fluoro-N-(methylsulfonyl)benzamide]: 9 nM; for `CC(c1cc(Cl)cc(C2CC2)n1)N1CCC(COc2cc(F)c(C(=O)NS(C)(=O)=O)cc2C2CC2)CC1` (stereo not shown) [Example 46, 4-((1-(1-(4-chloro-6-cyclopropylpyridin-2-yl)ethyl)piperidin-4-yl)methoxy)-5-cyclopropyl-2-fluoro-N-(methylsulfonyl)benzamide]: 12 nM; for `COc1c(Cl)cc(Cl)cc1[C@H](C)N1CCC(COc2cc(F)c(C(=O)NS(C)(=O)=O)cc2C2CC2)CC1` (single isomer, unassigned) [Example 16]: 5.7 nM.

Molecule `CCS(=O)(=O)NC(=O)c1cc(C2CC2)c(OCC2CCN(Cc3cc(Cl)cc(Cl)c3OC)CC2)cc1F` [Example 13, 5-Cyclopropyl-4-((1-(3,5-dichloro-2-methoxybenzyl)piperidin-4-yl)methoxy)-N-(ethylsulfonyl)-2-fluorobenzamide] gave an IC50 of 4.1 nM. The same measure for `CC(c1cc(C(F)(F)F)cc(C2CC2)n1)N1CCC(COc2cc(F)c(C(=O)NS(C)(=O)=O)cc2C2CC2)CC1` (stereo not shown) [Example 50, 5-cyclopropyl-4-((1-(1-(6-cyclopropyl-4-(trifluoromethyl)pyridin-2-yl)ethyl)piperidin-4-yl)methoxy)-2-fluoro-N-(methylsulfonyl)benzamide]: 9.1 nM.
